Assay results from publication PMC11945657, “Microwave-Assisted Synthesis of Morpholine-Based Chalcones as Reversible MAO-A Inhibitors in the Management of Mental Depression” (Pharmaceuticals, 2025).
“And” between values parts separate entries of the source, which are not always exact repeats. Identical values can stand only once. Like-named read-outs stand apart in the source and are kept apart here.

How the values were obtained:
[1] = DPPH free radical scavenging antioxidant assay
Method: H2O2 produced during metabolic events in the brain may be crucial for signaling and metabolic functions. The compounds were screened to check their potential to inhibit ROS through the DPPH assay. […] However, further studies are required to confirm this effect.
The DPPH approach, which gauges the free radical scavenging activity, was used to evaluate the antioxidant properties of the compounds. The test was performed according to the literature method. The stock solution of DPPH (0.5 mM) was prepared, and methanol was used to create each dilution. The different concentrations (10, 25, 50, 75, and 100 μM) of the test compounds (C1–C15) were prepared and compared with the standard ascorbic acid. The percentage antioxidant activity of the compounds was calculated using the following formula: % Antioxidant activity = [(Aabsorbance − Atest)/Aabsorbance] × 100.

hMAO-A = target: T1, hMAO-A (Homo sapiens, UniProt P21397); assay: MAO inhibition assay (Amplex Red, fluorimetric), MAO-A
T1 sequence (P21397 1-527): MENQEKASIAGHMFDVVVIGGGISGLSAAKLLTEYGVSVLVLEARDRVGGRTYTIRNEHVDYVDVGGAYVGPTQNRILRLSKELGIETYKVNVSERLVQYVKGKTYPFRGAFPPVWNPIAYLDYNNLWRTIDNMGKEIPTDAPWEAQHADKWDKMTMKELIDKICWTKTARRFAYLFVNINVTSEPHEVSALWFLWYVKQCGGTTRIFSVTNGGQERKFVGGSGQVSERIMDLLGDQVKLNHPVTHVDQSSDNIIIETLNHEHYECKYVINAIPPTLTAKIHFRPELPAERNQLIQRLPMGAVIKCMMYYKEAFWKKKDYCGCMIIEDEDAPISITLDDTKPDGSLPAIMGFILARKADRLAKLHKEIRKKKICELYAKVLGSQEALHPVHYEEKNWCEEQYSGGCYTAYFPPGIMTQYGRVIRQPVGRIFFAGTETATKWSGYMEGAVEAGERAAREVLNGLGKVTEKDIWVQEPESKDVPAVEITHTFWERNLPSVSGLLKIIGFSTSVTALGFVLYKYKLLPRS

hMAO-B = target: T2, hMAO-B (Homo sapiens, UniProt P27338); assay: MAO inhibition assay (Amplex Red, fluorimetric), MAO-B
T2 sequence (P27338 1-520): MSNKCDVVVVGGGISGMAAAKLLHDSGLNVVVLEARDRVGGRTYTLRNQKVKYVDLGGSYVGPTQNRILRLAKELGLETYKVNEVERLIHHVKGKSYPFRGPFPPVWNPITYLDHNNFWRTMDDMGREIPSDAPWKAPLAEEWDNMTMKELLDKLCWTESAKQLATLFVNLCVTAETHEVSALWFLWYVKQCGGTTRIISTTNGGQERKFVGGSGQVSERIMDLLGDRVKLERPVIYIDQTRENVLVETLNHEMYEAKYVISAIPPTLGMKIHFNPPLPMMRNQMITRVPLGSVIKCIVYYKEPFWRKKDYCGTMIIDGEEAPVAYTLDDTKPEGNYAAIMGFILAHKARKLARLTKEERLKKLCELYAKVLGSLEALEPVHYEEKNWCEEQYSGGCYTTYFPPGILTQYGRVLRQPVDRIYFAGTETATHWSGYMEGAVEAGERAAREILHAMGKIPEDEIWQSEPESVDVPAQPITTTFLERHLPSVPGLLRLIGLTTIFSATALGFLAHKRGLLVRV

[2] = read-out: Percentage Inhibition at 20 μM MAO-A
[3] = read-out: Percentage Inhibition at 20 μM MAO-B
[4] = read-out: IC50 Values MAO-A, class symbol, IC50 not calculated
[5] = read-out: Percentage Inhibition at 20 μM MAO-A, 20 μM

Structure (SMILES)	inhibition at 20 µM (hMAO-B; read-out: IC50 Values MAO-B) [%]	inhibition at 20 µM (hMAO-B; [3]) [%]	inhibition at 20 µM (hMAO-A; [4]) [%]	inhibition at 20 µM (hMAO-A; [5]) [%]	IC50 (hMAO-A) [µM]	Percentage Inhibition at 20 μM MAO-A (hMAO-A; 20 μM) [%]	% Antioxidant Activity ([1]; 10 µM) [%]	% Antioxidant Activity ([1]; 25 µM) [%]	% Antioxidant Activity ([1]; 50 µM) [%]	% Antioxidant Activity ([1]; 75 µM)	% Antioxidant Activity ([1]; 100 µM)	% Antioxidant Activity ([1]; 100 µM, listed as ascorbic acid) [%]	inhibition at 20 µM (hMAO-A; [2]) [%]	inhibition at 20 µM (hMAO-A; read-out: IC50 Values MAO-A) [%]
O=C1O[C@H]([C@@H](O)CO)C(O)=C1O [Ascorbic acid, ascorbic acid, reference compound]							8.03	20.27	40.23	46.33%	58.53%	50		
C#CCN(C)CCCOc1ccc(Cl)cc1Cl [Clorgyline, clorgyline, reference compound]													95	
O=C(/C=C/c1ccc(Br)cc1)c1ccc(N2CCOCC2)cc1 [Compound C1, (E)-3-(4-Bromophenyl)-1-(4-morpholinophenyl)prop-2-en-1-one]	< 50	6.59					9.24	21.80	35.78	50% and 53.13%	50% and 54.82%		13.6	< 50
COc1ccc(/C=C/C(=O)c2ccc(N3CCOCC3)cc2)cc1OC [Compound C4, (E)-3-(3,4-Dimethoxyphenyl)-1-(4-morpholinophenyl)prop-2-en-1-one]	< 50	5.56	< 50	15.8			16.37	32.47	41.07	33.69%	50% and 52.62%			
O=C(/C=C/c1ccc(Cl)cc1)c1ccc(N2CCOCC2)cc1 [Compound C7, (E)-3-(4-Chlorophenyl)-1-(4-morpholinophenyl)prop-2-en-1-one]	< 50	7.43					13.81	15.62	32.06	50% and 52.12%	50% and 53.37%		21.4	< 50
Cc1ccc(/C=C/C(=O)c2ccc(N3CCOCC3)cc2)cc1 [Compound C9, (E)-1-(4-Morpholinophenyl)-3-(p-tolyl)prop-2-en-1-one]	< 50	6.77					8.65	23.43	35.75	39.19%	44.66%		4.95	< 50
COc1ccccc1/C=C/C(=O)c1ccc(N2CCOCC2)cc1 [Compound C11, (E)-3-(2-Methoxyphenyl)-1-(4-morpholinophenyl)prop-2-en-1-one]	< 50	18.6	< 50	21.1			13.89	16.00	40.26	27.09%	36.45%			
O=C(/C=C/c1ccccc1Cl)c1ccc(N2CCOCC2)cc1 [Compound C12, (E)-3-(2-Chlorophenyl)-1-(4-morpholinophenyl)prop-2-en-1-one]	< 50	23.9		67.7	9.35 ± 0.11	67.76	3.03	19.54	40.88	44.56%	35.95%			
CCc1ccc(/C=C/C(=O)c2ccc(N3CCOCC3)cc2)cc1 [Compound C13, (E)-3-(4-Ethylphenyl)-1-(4-morpholinophenyl)prop-2-en-1-one]	< 50	17.5					2.54	15.55	41.40	22.18%	66.87%		7.25	
C#CCN(C)Cc1ccccc1 [Pargyline, pargyline, reference compound]		99											< 50	

The next lines start with results.

inhibition at 20 µM (hMAO-B; read-out: IC50 Values MAO-B) [%]	inhibition at 20 µM (hMAO-B; [3]) [%]	inhibition at 20 µM (hMAO-A; [4]) [%]	inhibition at 20 µM (hMAO-A; [5]) [%]	IC50 (hMAO-A) [µM]	Percentage Inhibition at 20 μM MAO-A (hMAO-A; 20 μM) [%]	Structure (SMILES)	% Antioxidant Activity ([1]; 10 µM) [%]	% Antioxidant Activity ([1]; 25 µM) [%]	% Antioxidant Activity ([1]; 50 µM) [%]	% Antioxidant Activity ([1]; 75 µM)	% Antioxidant Activity ([1]; 100 µM)	% Antioxidant Activity ([1]; 100 µM, listed as ascorbic acid) [%]	inhibition at 20 µM (hMAO-A; [2]) [%]	inhibition at 20 µM (hMAO-A; read-out: IC50 Values MAO-A) [%]
< 50	4.74	< 50	19.4			O=C(/C=C/c1ccc(Cl)c(Cl)c1)c1ccc(N2CCOCC2)cc1 [Compound C2, (E)-3-(3,4-Dichlorophenyl)-1-(4-morpholinophenyl)prop-2-en-1-one]	6.63	25.78	37.18	50% and 50.91%	50% and 53.12%			
< 50	7.11	< 50	37.7			O=C(/C=C/c1ccc(F)cc1)c1ccc(N2CCOCC2)cc1 [Compound C3, (E)-3-(4-Fluorophenyl)-1-(4-morpholinophenyl)prop-2-en-1-one]	14.58	38.25	40.31	50% and 53.10%	56.87%			
< 50	6.54	< 50	36.8			O=C(/C=C/c1ccc(Br)c(F)c1)c1ccc(N2CCOCC2)cc1 [Compound C5, (E)-3-(4-Bromo-3-fluorophenyl)-1-(4-morpholinophenyl)prop-2-en-1-one]	19.11	23.41	38.15	49.88%	50% and 50.95%			
< 50	6.32	< 50	3.11			Cc1cccc(/C=C/C(=O)c2ccc(N3CCOCC3)cc2)c1 [Compound C8, (E)-1-(4-Morpholinophenyl)-3-(m-tolyl)prop-2-en-1-one]	16.56	31.47	36.01	49.24%	66.42%			
< 50	12.4	< 50	33.9			O=C(/C=C/c1cccc(F)c1)c1ccc(N2CCOCC2)cc1 [Compound C10, (E)-3-(3-Fluorophenyl)-1-(4-morpholinophenyl)prop-2-en-1-one]	17.09	21.05	34.56	42.27%	32.62%			
< 50	25.7		6.17			Cc1ccccc1/C=C/C(=O)c1ccc(N2CCOCC2)cc1 [Compound C15, (E)-1-(4-Morpholinophenyl)-3-(o-tolyl)prop-2-en-1-one]	6.51	30.71	41.06	32.50%	29.17%			
